This note sets out measurements from patent US20240197726A1, “NOVEL TETRAHYDROISOQUINOLINE ALKALOID COMPOUND CONTAINING MACROCYCLE” (THE UNIVERSITY OF TOKYO, priority 2021, published 2024).

Read-outs that look alike come from different tables or passages of the source.

What all share (format): cell-based
The subject of test [1] is HT-29 colorectal cancer cells. The test is described as follows: antitumor activity, sulforhodamine B cell growth assay, HT-29. As to conditions: HT-29, drug exposure 48 hours, read-out: GI50 value: 50% growth inhibitory concentration. Here is the method: (§1) The THIQ compound containing a macrocyclic structure of the present invention was administered to various cancer cell lines, and the antitumor activity (Go value) was observed. Specifically, verification was performed according to the literature (Yamori, T.; Matsunaga, A.; Sato, S.; Yamazaki, K.; Komi, A.; Ishizu, K. et al. Cancer Res. 1999, 59, 4042) by the following procedure.
(§2) Cells were plated at an appropriate density in a 96-well plate in RPMI 1640 together with 5% fetal bovine serum, and adhered overnight. The cells were exposed to a drug for 48 hours. Then, according to the sulforhodamine B assay described by Skehan et al (Skehan P., Storeng R., Scudiero D., Monks A., McMahon J., Vistica D., Warren J. T., Bokesch H., Kenney S., Boyd M. R. J Natl. Cancer Inst, 1990, 82, 1107-1112), the cell growth rate was measured. The absorbance of the control well (C) and the test well (T) was measured at 525 nm. In addition, the time at which the drug was added was set as time 0, and the absorbance for the test well (T0) was measured. Using these measured values, the cell growth inhibitory effect (% growth=PG) was calculated by the following formula at each concentration of the drug.
(§3) (T<T0): PG=100×[(T−T0)/T]
(§4) The PG values determined above for each cell line were plotted against the concentration (logarithm) on a semi-logarithmic graph, and summarized for each visceral cancer. Concentrations at which the dose-response curve of each cell line crossed the horizontal line of PG=50%, 0%, or −50% were calculated. These concentrations were defined as Log GI50, Log TGI, and Log LC50. Actually, using two data points of the drug concentration before and after crossing each horizontal line, the drug concentration (logarithmic value) at the intersection of the straight line connecting the two points and the horizontal line for each PG was calculated.

Test [2] has as its system NCI-H23 lung cancer cells. The test is described as follows: antitumor activity, sulforhodamine B cell growth assay, NCI-H23. The settings on record: NCI-H23, drug exposure 48 hours, read-out: GI50 value: 50% growth inhibitory concentration. Here is the method: as §1, §2, §3, §4
Test [3] concerns SF-268 central nervous system cancer cells. In words: antitumor activity, sulforhodamine B cell growth assay, SF-268. As to conditions: SF-268, drug exposure 48 hours, read-out: GI50 value: 50% growth inhibitory concentration. How it is done:
as §1, §2, §3, §4

The test system of test [4] is HCT-116 colorectal cancer cells. The test is described as follows: antitumor activity, sulforhodamine B cell growth assay, HCT-116. The settings on record: HCT-116, drug exposure 48 hours, read-out: GI50 value: 50% growth inhibitory concentration. Here is the method:
as §1, §2, §3, §4

For test [5], the system named is MKN45 gastric cancer cells. The test is described as follows: antitumor activity, sulforhodamine B cell growth assay, MKN45. As to conditions: MKN45, drug exposure 48 hours, read-out: GI50 value: 50% growth inhibitory concentration. Here is the method:
as §1, §2, §3, §4

In test [6] the test system is LOX-IMVI melanoma cells. In words: antitumor activity, sulforhodamine B cell growth assay, LOX-IMVI. The settings on record: LOX-IMVI, drug exposure 48 hours, read-out: GI50 value: 50% growth inhibitory concentration. Here is the method:
as §1, §2, §3, §4

For test [7], the system named is DMS114 lung cancer cells. In words: antitumor activity, sulforhodamine B cell growth assay, DMS114. The settings on record: DMS114, drug exposure 48 hours, read-out: GI50 value: 50% growth inhibitory concentration. How it is done:
as §1, §2, §3, §4

Test [8] has as its system RXF-631L kidney cancer cells. In words: antitumor activity, sulforhodamine B cell growth assay, RXF-631L. As to conditions: RXF-631L, drug exposure 48 hours; read-out: GI50 value: 50% growth inhibitory concentration. How it is done: as §1, §2, §3, §4
Test [9] has as its system SNB-78 central nervous system cancer cells. The test is described as follows: antitumor activity, sulforhodamine B cell growth assay, SNB-78. As to conditions: SNB-78, drug exposure 48 hours, read-out: GI50 value: 50% growth inhibitory concentration. Here is the method:
as §1, §2, §3, §4

The subject of test [10] is MDA-MB-231 breast cancer cells. In words: antitumor activity, sulforhodamine B cell growth assay, MDA-MB-231. As to conditions: MDA-MB-231, drug exposure 48 hours, read-out: GI50 value: 50% growth inhibitory concentration. How it is done: as §1, §2, §3, §4
Test [11] deals with MKN1 gastric cancer cells. The test is described as follows: antitumor activity, sulforhodamine B cell growth assay, MKN1. The settings on record: MKN1, drug exposure 48 hours, read-out: GI50 value: 50% growth inhibitory concentration. How it is done: as §1, §2, §3, §4
For test [12], the system named is MKN74 gastric cancer cells. In words: antitumor activity, sulforhodamine B cell growth assay, MKN74. As to conditions: MKN74, drug exposure 48 hours, read-out: GI50 value: 50% growth inhibitory concentration. Here is the method: as §1, §2, §3, §4
Test [13] relates to SF-295 central nervous system cancer cells. The test is described as follows: antitumor activity, sulforhodamine B cell growth assay, SF-295. As to conditions: SF-295, drug exposure 48 hours, read-out: GI50 value: 50% growth inhibitory concentration. Here is the method: as §1, §2, §3, §4
For test [14], the system named is HBC-4 breast cancer cells. The test is described as follows: antitumor activity, sulforhodamine B cell growth assay, HBC-4. The settings on record: HBC-4, drug exposure 48 hours, read-out: GI50 value: 50% growth inhibitory concentration. How it is done:
as §1, §2, §3, §4

In test [15] the test system is OVCAR-4 cancer cells. The test is described as follows: antitumor activity, sulforhodamine B cell growth assay, OVCAR-4. The settings on record: OVCAR-4, drug exposure 48 hours, read-out: GI50 value: 50% growth inhibitory concentration. How it is done:
as §1, §2, §3, §4

Test [16] concerns PC-3 prostate cancer cells. In words: antitumor activity, sulforhodamine B cell growth assay, PC-3. The settings on record: PC-3, drug exposure 48 hours; read-out: GI50 value: 50% growth inhibitory concentration. How it is done:
as §1, §2, §3, §4

Test [17] deals with NCI-H522 lung cancer cells. In words: antitumor activity, sulforhodamine B cell growth assay, NCI-H522. As to conditions: NCI-H522, drug exposure 48 hours, read-out: GI50 value: 50% growth inhibitory concentration. Here is the method: as §1, §2, §3, §4
The subject of test [18] is OVCAR-5 cervical cancer cells. The test is described as follows: antitumor activity, sulforhodamine B cell growth assay, OVCAR-5. The settings on record: OVCAR-5, drug exposure 48 hours, read-out: GI50 value: 50% growth inhibitory concentration. How it is done: as §1, §2, §3, §4

On to `COc1c(C)cc2c(c1O)[C@@H]1[C@@H]3Cc4c5c(C)c6c(c4C(CNC(=O)[C@H](C)NC(=O)OCC4C=C(CO5)Cn5c(=O)n(-c7ccccc7)c(=O)n54)N3[C@@H](C#N)[C@H](C2)N1C)OCO6` [Compound 16], for which the GI50 stood at 7.3 nM in [1] (Homo sapiens); 20 nM in test [2] (Homo sapiens); 13 nM in test [3] (Homo sapiens); 9.3 nM in test [4] (Homo sapiens); 7.1 nM in [5] (Homo sapiens, MKN-45); 3.3 nM in [6] (Homo sapiens). Further, the GI50 turned out to be 3.8 nM in test [7] (Homo sapiens, DMS-114); 35 nM in test [8]; 7.5 nM in test [9] (Homo sapiens); 6.7 nM in test [10] (Homo sapiens); 4.8 nM in test [11] (Homo sapiens, MKN-1); 32 nM in test [12] (Homo sapiens, MKN-74). In addition, the GI50 in test [13] (Homo sapiens) was 29 nM; in [14] (HBC4), 5.2 nM; in test [15] (Homo sapiens), 36 nM; in [16], 26 nM; in test [17] (Homo sapiens) it was 2.4 nM; in test [18] (Homo sapiens), 31 nM.

On to `COc1c(C)cc2c(c1O)C1C3Cc4c5c(C)c6c(c4C(CNC(=O)C(C)NC(=O)OCC4C=C(CO5)CC5C(=O)N(c7ccccc7)C(=O)C45)N3C(C#N)C(C2)N1C)OCO6` (stereo not drawn) [Compound 18], for which the GI50 in test [1] turned out to be 72 nM; in [2] it was 110 nM; in test [3], 74 nM; in test [4], 74 nM; in test [5], 78 nM; in test [6], 27 nM. For the same compound, the GI50 in test [7] was determined as 12 nM; in test [8], 310 nM; in test [9], 40 nM; in test [10] it was 41 nM; in test [11], 50 nM; in test [12], 120 nM. The GI50 amounted to 300 nM in test [13]; 30 nM in test [14]; 350 nM in [15]; 170 nM in [16]; 20 nM in test [17]; 280 nM in test [18].

Consider `COc1c(C)cc2c(c1O)[C@@H]1[C@@H]3Cc4c5c(C)c6c(c4C(CNC(=O)[C@H](C)N(C)CC#CCO5)N3[C@@H](C#N)[C@H](C2)N1C)OCO6` [Compound 29], for which the GI50 in test [1] (Homo sapiens) worked out at 2 nM; in [2] (Homo sapiens) it was 2.6 nM; in [3] (Homo sapiens), 2.8 nM; in test [4] (Homo sapiens), 2.4 nM; in test [5] (Homo sapiens, MKN-45), 1.3 nM; in test [6] (Homo sapiens), 0.59 nM. In addition, the GI50 in test [7] (Homo sapiens, DMS-114) was 0.89 nM; in [8] it was 3.1 nM; in test [9] (Homo sapiens) it was 3.1 nM; in test [10] (Homo sapiens), 2.3 nM; in test [11] (Homo sapiens, MKN-1), 2.3 nM; in test [12] (Homo sapiens, MKN-74), 3.7 nM. In addition, the GI50 stood at 3.4 nM in test [13] (Homo sapiens); 1.5 nM in [14] (HBC4); 3.5 nM in test [15] (Homo sapiens); 3 nM in test [16]; 0.6 nM in [17] (Homo sapiens); 3.2 nM in test [18] (Homo sapiens).

`C=C1/C=C/CN[C@@H](C)C(=O)NCC2c3c(c(c(C)c4c3OCO4)OC1)C[C@H]1[C@H]3c4c(cc(C)c(OC)c4O)C[C@@H]([C@H](C#N)N21)N3C` [Compound 33]: the GI50 in test [1] was 86 nM; in [2] it was 93 nM; in test [3] it was 110 nM; in [4], 87 nM; in test [5], 41 nM; in [6], 31 nM. The GI50 in [7] is 31 nM; in test [8] it was 300 nM; in test [9] it was 83 nM; in test [10], 52 nM; in test [11], 68 nM; in test [12] it was 260 nM. Further, the GI50 in test [13] came out at 270 nM; in [14], 32 nM; in test [15] it was 400 nM; in [16] it was 190 nM; in test [17], 25 nM; in [18], 310 nM.

Turning to `C#CCN1C/C=C/C(=C)COc2c(C)c3c(c4c2C[C@H]2[C@H]5c6c(cc(C)c(OC)c6O)C[C@@H]([C@H](C#N)N2C4CNC(=O)[C@@H]1C)N5C)OCO3` [Compound 35], the GI50 was determined as 3.2 nM in test [1] (Homo sapiens); 3.5 nM in test [2] (Homo sapiens); 3.3 nM in test [3] (Homo sapiens); 2.7 nM in [4] (Homo sapiens); 2.7 nM in test [5] (Homo sapiens, MKN-45); 1.7 nM in [6] (Homo sapiens). The GI50 was 1.2 nM in test [7] (Homo sapiens, DMS-114); 2.9 nM in test [8]; 3.4 nM in test [9] (Homo sapiens); 2.7 nM in test [10] (Homo sapiens); 2.7 nM in test [11] (Homo sapiens, MKN-1); 4.5 nM in [12] (Homo sapiens, MKN-74). Also, the GI50 in [13] (Homo sapiens) was determined as 3.8 nM; in test [14] (HBC4) it was 2.2 nM; in test [15] (Homo sapiens), 3.6 nM; in [16] it was 3.3 nM; in test [17] (Homo sapiens), 1.1 nM; in [18] (Homo sapiens) it was 3.3 nM.

`COc1c(C)cc2c(c1O)C1C3Cc4c5c(C)c6c(c4C(CNC(=O)C(C)NCC=CCO5)N3C(C#N)C(C2)N1C)OCO6` (stereo not drawn) [Compound 42]: the GI50 in test [1] was 13 nM; in test [2] it was 31 nM; in test [3], 27 nM; in [4], 21 nM; in test [5], 16 nM; in test [6] it was less than 10 nM. For the same compound, the GI50 in test [7] was less than 10 nM; in test [8], 34 nM; in test [9] it was 11 nM; in [10], less than 10 nM; in test [11], 18 nM; in [12] it was 35 nM. In addition, the GI50 in test [13] is 38 nM; in test [14], less than 10 nM; in test [15] it was 55 nM; in test [16] it was 40 nM; in test [17], less than 10 nM; in test [18] it was 47 nM.
